Source: US6410554B1, “Combination therapy for the treatment of benign prostatic hyperplasia” (Merck & Co., Inc., priority 1998, dated 2002)
Counter-ions that a name gives are not always drawn.

## C[C@@H]1OC(=O)N(C(=O)NCCCN2CCC(c3ccc(F)cc3)CC2)[C@H]1c1ccc(F)c(F)c1 (as salt: hydrochloride)
  melting point: 80 to 83 °C
